The source of these data is patent US5801178A, “Aniline derivative having polyunsaturated fatty acid residue and use thereof” (Nippon Shoji Kaish Ltd., priority 1995, dated 1998).

Series [1] addresses T1, ACAT derived from human macrophage (Homo sapiens, UniProt P35610).
T1 construct: Using, as an enzyme source, microsomal fractions prepared in the manner described below under Preparation of Microsome from U937 cells; endogenous in cells; host or cells: U937 cells differentiated with TPA, microsomal fraction
T1 sequence (P35610 1-550): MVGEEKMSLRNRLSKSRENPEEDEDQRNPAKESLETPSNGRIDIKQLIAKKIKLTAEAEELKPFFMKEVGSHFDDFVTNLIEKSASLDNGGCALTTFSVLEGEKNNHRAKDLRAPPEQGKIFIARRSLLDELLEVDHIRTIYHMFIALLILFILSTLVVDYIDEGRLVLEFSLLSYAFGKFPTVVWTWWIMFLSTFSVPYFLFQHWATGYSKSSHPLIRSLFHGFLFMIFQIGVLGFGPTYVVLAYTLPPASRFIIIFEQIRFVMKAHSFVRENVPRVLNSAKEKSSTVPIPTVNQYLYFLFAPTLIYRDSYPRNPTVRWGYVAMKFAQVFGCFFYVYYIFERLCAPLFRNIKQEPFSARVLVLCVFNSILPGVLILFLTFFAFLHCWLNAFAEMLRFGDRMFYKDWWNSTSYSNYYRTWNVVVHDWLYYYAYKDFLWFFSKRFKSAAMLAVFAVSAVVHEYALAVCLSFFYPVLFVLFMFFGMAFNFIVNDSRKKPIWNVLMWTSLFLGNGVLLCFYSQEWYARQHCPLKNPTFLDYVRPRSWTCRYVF
The series can be described thus: Inhibitory activity against ACAT derived from human macrophage (microsomes of TPA-differentiated U937 cells). Type of series: biochemical. Conditions: for Selectivity: Table 1, rat liver ACAT IC50 / human macrophage ACAT IC50; for IC50: human macrophage (U937/TPA) microsome, pH 7.4, 37° C., 30 minutes. As for the experimental part: Inhibitory activity against ACAT derived from human macrophage
(§1) Using, as an enzyme source, microsomal fractions prepared in the manner described below under Preparation of Microsome from U937 cells [human monocyte-derived cells known to differentiate into macrophages by the addition of TPA (12-O-tetradecanoylphorbol 13-acetate)] differentiated with TPA, the inhibitory activity against ACAT in the microsome fractions was determined as in the following. The compound of the present invention was dissolved in dimethyl sulfoxide and used as a sample solution. [1-^14 C] […] Ethanol (1 ml) was added to stop the reaction, and n-hexane (4.5 ml) was added. The reaction mixture was centrifuged at 2,000 rpm for 2 minutes and the upper n-hexane layer was separated and recovered, whereby cholesterol oleate (reaction product) was extracted. n-Hexane was evaporated with a nitrogen gas and the residue was re-dissolved in n-hexane (50 μl), which was used as a sample for thin-layer chromatography. […] After developing, the spot of cholesterol oleate was colored with iodine. The spot was cut out and dissolved in a xylene scintillator (Aquasol-2, Daiichi Pure Chemicals Co., Ltd.). The amount of cholesterol oleate was determined with a liquid scintillation counter.
The cells thus scraped and the culture solution were centrifuged at 3,000 rpm for 5 minutes, and the cell fractions obtained as precipitate were once freezed at -70° C. and preserved. The cells preserved at -70° C. were thawed and homogenized at 4° C. in a Teflon homogenizer. The homogenate was centrifuged at 12,000 g for 15 minutes. The precipitate fractions containing nuclea and mitochondria were removed and the obtained supernatant was further centrifuged at 100,000 g for 60 minutes. The supernatant was discarded, and the obtained precipitate fractions were suspended in 150 mM potassium phosphate buffer (pH 7.4) and used as a microsomal fraction.

The test system of series [2] is ACAT derived from rat liver. Kind of series: Inhibitory activity against ACAT derived from rat liver microsome. Type of series: biochemical. The settings on record: pH 7.4, 37° C., 30 minutes. As for the experimental part:
Inhibitory activity against ACAT derived from rat liver microsome
as §1, with “source, the” for “source,”, “prepared from rat liver” for “prepared”, “of Microsome,” for “of Microsome from U937 cells [human monocyte-derived cells known to differentiate into macrophages by the addition of TPA (12-O-tetradecanoylphorbol 13-acetate)] differentiated with TPA,”, “re-dissolved dissolved” for “re-dissolved”, “determined using” for “determined with”
The liver was removed from a fasted rat and thoroughly perfused with 0.25M sucrose solution. The liver was weighed, minced with scissors or razor and placed in a Teflon homogenizer. The liver was homogenized with 9 volumes [9 ml per g (wet weight) of liver] of 0.25M sucrose solution or 50 mM Tris-HCl buffer (pH 7.5) containing 0.25M sucrose and 5 mM MgCl2. The homogenate was centrifuged at 8,000-10,000 g for 10-15 minutes. The obtained supernatant was centrifuged at 105,000 g for 60-90 minutes. The sediment obtained from this centrifugation was suspended in 150 mM potassium phosphate buffer (pH 7.4) to give a microsomal fraction.

The nature of series [3]: Reduction of cholesterol in blood of cholesterol-loaded rats. In kind it is in vivo, Male slc:SD (SPF) rats. Conditions: serum total cholesterol; 90 mg/kg/day orally, five days; average of 8 rats; control taken as 100%. An excerpt: Reduction of cholesterol in blood of rats
Male slc:SD (SPF) rats (4 weeks of age weighing 70-90 g, Japan SLC Inc.) were randomly divided into 8 per group and bred for 3 days on a normal diet (solid diet for test animals, MF, manufactured by Oriental Yeast CO., LTD.). Then, the aforementioned diet supplemented with 5% cholesterol, 10% olive oil and 0.5% cholic acid was freely fed for 10 days. During the last five days, the test compound (Compounds 3-6, 8, 11 and 12) suspended in 0.5% aqueous methylcellulose solution was forcibly administered orally once a day in a dose of 10 ml/kg which contains 90 mg/kg/day of the test compound (total dose of the test compound being 450 mg/kg). The rats were fasted for 16 hours after the final administration and etherized. The blood was taken from the abdominal aorta, and serum was separated by centrifugation to determine the total cholesterol content in the serum. The control group was administered with 0.5% aqueous methylcellulose solution instead of the test compound suspended in 0.5% aqueous methylcellulose solution.
* is an average of 8 rats per group based on the cholesterol content in
blood of control which was taken as 100%.

A short description of series [4]: Acute toxicity, oral, mice. In kind it is in vivo, Male slc:ICR mice. As for the experimental part: Male slc:ICR mice (4 weeks of age, Japan SLC Inc.) were bred for 7 days on a normal diet (solid diet for test animals, Labo MR stock-SLC, manufactured by Japan SLC Inc.). Then, the mice were fasted for 16 hours and divided into 5 per group. The mice were forcibly administered orally with the test compound (Compounds 4, 5 and 9-12) dissolved in corn oil. The mice were further bred on a normal diet for 14 days to observe acute toxicity.

As a reminder, the IC50 is the concentration that inhibits the measured activity by half. In series [1], `CCC=CCC=CCC=CCC=CCC=CCCCC(=O)Nc1c(C(C)C)cccc1C(C)C` [Compound 11, N-(2,6-diisopropylphenyl)-5,8,11,14,17-eicosapentaenamide] returned a Selectivity of 247 and a half-inhibitory concentration (IC50) of 0.0097 µM. Also, inhibition in series [2] was half-maximal at 2.4 µM (IC50). The “Reduction of cholesterol in cholesterol-loaded rats, %*” value (“Reduction of cholesterol … %*” for short) in series [3] was found to be 78%.
The matching figures for `CCC=CCC=CCC=CCC=CCC=CCCCC(=O)Nc1c(F)cc(F)cc1F` [Compound 3, N-(2,4,6-trifluorophenyl)-5,8,11,14,17-eicosapentaenamide]: > 1852, 0.27 µM, > 500 µM and 71%.
`CCC=CCC=CCC=CCC=CCC=CCC=CCCC(=O)Nc1c(C(C)C)cccc1C(C)C` [Compound 12, N-(2,6-diisopropylphenyl)-4,7,10,13,16,19-docosahexaenamide]: half-maximal inhibition in series [2] (IC50) required 52.7 µM. For the same compound, the “Reduction of cholesterol … %*” value in series [3] is reported as 64%.
As to `CCC=CCC=CCC=CCC=CCC=CCC=CCCC(=O)Nc1c(F)cc(F)cc1F` [Compound 4, N-(2,4,6-trifluorophenyl)-4,7,10,13,16,19-docosahexaenamide], in series [1], the Selectivity is > 806 and the IC50 was 0.62 µM. The IC50 in series [2] was > 500 µM. Further, the “Reduction of cholesterol … %*” value in series [3] turned out to be 59%. Further, the minimum lethal dose in series [4] (mouse, in vivo, po, 20160 min) is reported as ≥ 2,000 mg/kg.
In series [1], `CCC=CCC=CCC=CCC=CCC=CCC=CCCC(=O)Nc1c(C)cccc1C` [Compound 8, N-(2,6-dimethylphenyl)-4,7,10,13,16,19-docosahexaenamide] gave a Selectivity of 264 and a concentration for half-maximal inhibition (IC50) of 0.28 µM. Also, it took 73.9 µM to reach half-maximal inhibition in series [2] (IC50). Further, in series [3], the “Reduction of cholesterol … %*” value was 77%.
Turning to `CCC=CCC=CCC=CCC=CCC=CCCCC(=O)Nc1c(C)cc(C)cc1C` [Compound 5, N-(2,4,6-trimethylphenyl)-5,8,11,14,17-eicosapentaenamide], in series [1], the Selectivity is listed as 47.9 and the midpoint of inhibition, the IC50, lay at 0.9 µM. In series [2], this compound came in with a half-inhibitory concentration (IC50) of 43.1 µM. Also, the “Reduction of cholesterol … %*” value in series [3] is 57%. Further, in series [4] (single oral administration in corn oil, mice, 14 days observation), the minimum lethal dose is reported as ≥ 2,000 mg/kg.
With `CCC=CCC=CCC=CCC=CCC=CCC=CCCC(=O)Nc1c(C)cc(C)cc1C` [Compound 6, N-(2,4,6-trimethylphenyl)-4,7,10,13,16,19-docosahexaenamide], in series [1], the Selectivity was > 3333 and the concentration for half-maximal inhibition (IC50) was 0.15 µM. In addition, the IC50 in series [2] is > 500 µM. The “Reduction of cholesterol … %*” value in series [3] is given as 68%.
